{
  "source": "paper PMC6038709",
  "about": "“The Drosophila melanogaster Na^+/Ca^2+ Exchanger CALX Controls the Ca^2+ Level in Olfactory Sensory Neurons at Rest and After Odorant Receptor Activation” (Frontiers in Cellular Neuroscience, 2018)",
  "target": "T1, Orco (Or83b) (Drosophila melanogaster, UniProt Q9VNB5)",
  "T1 construct": "full-length Orco in pcDNA3.1(-), expressed alone (no OrX) in HEK293 cells",
  "T1 sequence (Q9VNB5 1-486)": "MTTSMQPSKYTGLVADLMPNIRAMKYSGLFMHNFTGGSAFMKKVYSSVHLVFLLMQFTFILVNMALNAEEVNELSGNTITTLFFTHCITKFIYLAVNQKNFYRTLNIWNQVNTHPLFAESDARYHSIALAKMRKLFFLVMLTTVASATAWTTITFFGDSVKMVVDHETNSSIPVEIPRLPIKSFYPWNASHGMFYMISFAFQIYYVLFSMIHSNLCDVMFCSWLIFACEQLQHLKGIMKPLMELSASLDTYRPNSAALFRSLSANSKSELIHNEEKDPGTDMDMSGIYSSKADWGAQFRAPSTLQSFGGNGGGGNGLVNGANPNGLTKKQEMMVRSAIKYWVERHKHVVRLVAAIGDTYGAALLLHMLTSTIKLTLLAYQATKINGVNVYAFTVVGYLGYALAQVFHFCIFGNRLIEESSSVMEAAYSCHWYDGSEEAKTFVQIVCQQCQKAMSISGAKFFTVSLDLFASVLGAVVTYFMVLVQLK",
  "assay": "fura-2 calcium imaging, HEK293 cells",
  "format": "cell-based",
  "conditions": "block of VUAA1-evoked (100 or 50 uM) calcium rise; KB-R7943 100 uM (Methods); pH 7.4; Orco without OrX",
  "data": [
    {"smiles": "N=C(N)SCCc1ccc(OCc2ccc([N+](=O)[O-])cc2)cc1", "note": "[KB-R7943, 2-[4-[(4-nitrophenyl)methoxy]phenyl]ethyl ester carbamimidothiotic acid, monomethanesulfonate]", "values": [
      {"measurement": "fura-2 calcium imaging, HEK293 cells", "result": "we confirmed that KB-R7943 is blocking Orco"}
    ]}
  ]
}
